Data as given in US9302999B2, “Substituted triazoles as herbicides” (E. I. DU PONT DE NEMOURS AND COMPANY, priority 2012, dated 2016).

Assays:
Type in all cases: in vivo
[1] = tested on: foxtail, green (green foxtail, Setaria viridis); assay: Test C pre-/postemergence: foxtail, green
Outline: (§1)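 Preemergence on seeds in loam/sand, postemergence on 2–18 cm (1–4-leaf) plants in peat-based medium; compounds in non-phytotoxic solvent with surfactant. After 13–15 days in greenhouse, visual rating versus controls, 0 (no effect) to 100 (complete control).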

[2] = tested on: nightshade (eastern black nightshade, Solanum ptycanthum); assay: Test C pre-/postemergence: nightshade; conditions: Preemergence
Outline: as §1

[3] = tested on: bromegrass, downy (downy bromegrass, Bromus tectorum); assay: Test D pre-/postemergence: bromegrass, downy
Outline: (§2)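 Visual 0–100 rating versus untreated controls (0 no effect, 100 complete control), taken 14 to 21 days after treatment in a controlled growth environment. Preemergence: silt loam soil. Postemergence: peat moss/vermiculite medium, plants 2 to 18 cm, 1- to 4-leaf stage. Solvent mixture with surfactant.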

[4] = tested on: barley, spring (spring barley, Hordeum vulgare); assay: Test D pre-/postemergence: barley, spring
Outline: as §2

[5] = tested on: barnyardgrass (Echinochloa crus-galli); assay: Test B flooded paddy: barnyardgrass; conditions: Flood; 250 g ai/ha; applied to paddy water at 2-leaf stage; visually evaluated after 13 to 15 days
Outline: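 Paddy-water application: seedlings at 2-leaf stage, flood depth 3 cm maintained for the test duration. Evaluation after 13–15 days in the greenhouse by eye relative to controls; 0–100 scale.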

[6] = tested on: oat, wild (wild oat, Avena fatua); assay: Test D pre-/postemergence: oat, wild
Outline: as §2

[7] = tested on: blackgrass (Alopecurus myosuroides); assay: Test D pre-/postemergence: blackgrass
Outline: as §2

[8] = tested on: windgrass (Apera spica-venti); assay: Test D pre-/postemergence: windgrass
Outline: as §2

[9] = Preemergence, 62 g ai/ha, scale of 0 to 100, 0 is no effect, 100 is complete control
[10] = Preemergence, 125 g ai/ha, scale 0 to 100, 0 no effect, 100 complete control
[11] = Preemergence, 250 g ai/ha, scale 0 to 100, 0 no effect, 100 complete control
[12] = 62 g ai/ha, scale of 0 to 100, 0 is no effect, 100 is complete control
[13] = 125 g ai/ha, scale 0 to 100, 0 no effect, 100 complete control
[14] = 250 g ai/ha, scale 0 to 100, 0 no effect, 100 complete control
[15] = Postemergence, 31 g ai/ha, scale 0 to 100 (0 no effect, 100 complete control)
[16] = Postemergence, 62 g ai/ha, scale 0 to 100 (0 no effect, 100 complete control)
[17] = Postemergence, 125 g ai/ha, scale 0 to 100, 0 no effect, 100 complete control
[18] = Postemergence, 16 g ai/ha, scale 0 to 100
[19] = Preemergence, 16 g ai/ha, scale 0 to 100 (0 no effect, 100 complete control)
[20] = Preemergence, 31 g ai/ha, scale 0 to 100 (0 no effect, 100 complete control)
[21] = Preemergence, 62 g ai/ha, scale 0 to 100
[22] = Preemergence, 125 g ai/ha, scale 0 to 100
[23] = Postemergence, 31 g ai/ha, scale 0 to 100
[24] = Postemergence, 250 g ai/ha, scale 0 to 100 (0 no effect, 100 complete control)
[25] = Preemergence, 250 g ai/ha, scale 0 to 100

Cc1nn(-c2ccc(F)c(C(F)(F)F)c2)nc1Oc1ccnc(C(F)(F)F)c1 [Compound 147]
Plant response rating, Foxtail, Green ([1]; Preemergence, 31 g ai/ha, scale of 0 to 100, 0 is no effect, 100 is complete control): 95
Plant response rating, Foxtail, Green [1, 9]: 95
Plant response rating, Foxtail, Green [1, 10]: 95
Plant response rating, Foxtail, Green [1, 11]: 95
Plant response rating, Nightshade ([2]; 31 g ai/ha, scale of 0 to 100, 0 is no effect, 100 is complete control): 98
Plant response rating, Nightshade [2, 12]: 98
Plant response rating, Nightshade [2, 13]: 98
Plant response rating, Nightshade [2, 14]: 98
Plant response rating: Bromegrass, Downy [3, 15]: 5
Plant response rating: Bromegrass, Downy [3, 16]: 15
Plant response rating: Bromegrass, Downy [3, 17]: 50
Plant response rating, Bromegrass, Downy [3, 18]: 5
Plant response rating, Bromegrass, Downy [3, 19]: 0
Plant response rating, Bromegrass, Downy [3, 20]: 5
Plant response rating, Bromegrass, Downy [3, 21]: 10
Plant response rating, Bromegrass, Downy [3, 22]: 15
Plant response rating: Barley, Spring [4, 15]: 15
Plant response rating: Barley, Spring [4, 16]: 20
Plant response rating: Barley, Spring [4, 17]: 25
Plant response rating, Barley, Spring [4, 18]: 15
Plant response rating, Barley, Spring [4, 19]: 0
Plant response rating, Barley, Spring [4, 20]: 0
Plant response rating, Barley, Spring [4, 21]: 5
Plant response rating, Barley, Spring [4, 22]: 10
Plant response rating, Barnyardgrass (0 to 100 scale, 0 is no effect, 100 is complete control) [5]: 55
Plant response rating: Oat, Wild [6, 15]: 15
Plant response rating: Oat, Wild [6, 16]: 30
Plant response rating: Oat, Wild [6, 17]: 35
Plant response rating, Oat, Wild [6, 18]: 10
Plant response rating, Oat, Wild [6, 19]: 5
Plant response rating, Oat, Wild [6, 20]: 15
Plant response rating, Oat, Wild [6, 21]: 35
Plant response rating, Oat, Wild [6, 22]: 70
Plant response rating: Blackgrass [7, 15]: 25
Plant response rating: Blackgrass [7, 16]: 30
Plant response rating: Blackgrass [7, 17]: 60
Plant response rating, Blackgrass [7, 18]: 15
Plant response rating, Blackgrass [7, 19]: 0
Plant response rating, Blackgrass [7, 20]: 0
Plant response rating, Blackgrass [7, 21]: 30
Plant response rating, Blackgrass [7, 22]: 40
Plant response rating: Windgrass [8, 16]: 50
Plant response rating: Windgrass [8, 17]: 75
Plant response rating, Windgrass [8, 18]: 15
Plant response rating, Windgrass [8, 23]: 25
Plant response rating, Windgrass [8, 19]: 0
Plant response rating, Windgrass [8, 20]: 60
Plant response rating, Windgrass [8, 21]: 100
Plant response rating, Windgrass [8, 22]: 100

CCOc1nn(-c2ccc(F)cc2)nc1Cc1ccnc(C(F)F)c1 [Compound 195]
Plant response rating, Foxtail, Green [1, 15]: 100
Plant response rating, Foxtail, Green [1, 16]: 100
Plant response rating, Foxtail, Green [1, 17]: 100
Plant response rating, Foxtail, Green [1, 24]: 100
Plant response rating, Foxtail, Green ([1]; Preemergence, 31 g ai/ha, scale 0 (no effect) to 100 (complete control)): 90
Plant response rating, Foxtail, Green [1, 9]: 90
Plant response rating, Foxtail, Green [1, 10]: 90
Plant response rating, Foxtail, Green [1, 11]: 90
Plant response rating, Nightshade ([2]; 31 g ai/ha, scale 0 (no effect) to 100 (complete control)): 60
Plant response rating, Nightshade [2, 12]: 85
Plant response rating, Nightshade [2, 13]: 95
Plant response rating, Nightshade [2, 14]: 98
Plant response rating: Bromegrass, Downy [3, 15]: 15
Plant response rating: Bromegrass, Downy [3, 16]: 20
Plant response rating: Bromegrass, Downy [3, 17]: 35
Plant response rating: Bromegrass, Downy [3, 24]: 40
Plant response rating, Bromegrass, Downy [3, 18]: 5
Plant response rating, Bromegrass, Downy [3, 19]: 0
Plant response rating, Bromegrass, Downy [3, 20]: 0
Plant response rating, Bromegrass, Downy [3, 21]: 25
Plant response rating, Bromegrass, Downy [3, 22]: 35
Plant response rating, Bromegrass, Downy [3, 25]: 50
Plant response rating: Barley, Spring [4, 15]: 15
Plant response rating: Barley, Spring [4, 16]: 20
Plant response rating: Barley, Spring [4, 17]: 30
Plant response rating: Barley, Spring [4, 24]: 40
Plant response rating, Barley, Spring [4, 18]: 10
Plant response rating, Barley, Spring [4, 19]: 0
Plant response rating, Barley, Spring [4, 20]: 0
Plant response rating, Barley, Spring [4, 21]: 0
Plant response rating, Barley, Spring [4, 22]: 0
Plant response rating, Barley, Spring [4, 25]: 30
Plant response rating, Barnyardgrass (0 to 100 scale, 0 is no effect, 100 is complete control) [5]: 85
Plant response rating: Oat, Wild [6, 15]: 20
Plant response rating: Oat, Wild [6, 16]: 25
Plant response rating: Oat, Wild [6, 17]: 35
Plant response rating: Oat, Wild [6, 24]: 45
Plant response rating, Oat, Wild [6, 18]: 10
Plant response rating, Oat, Wild [6, 19]: 0
Plant response rating, Oat, Wild [6, 20]: 0
Plant response rating, Oat, Wild [6, 21]: 0
Plant response rating, Oat, Wild [6, 22]: 75
Plant response rating, Oat, Wild [6, 25]: 75
Plant response rating: Blackgrass [7, 15]: 25
Plant response rating: Blackgrass [7, 16]: 35
Plant response rating: Blackgrass [7, 17]: 50
Plant response rating: Blackgrass [7, 24]: 70
Plant response rating, Blackgrass [7, 18]: 20
Plant response rating, Blackgrass [7, 19]: 0
Plant response rating, Blackgrass [7, 20]: 70
Plant response rating, Blackgrass [7, 21]: 75
Plant response rating, Blackgrass [7, 22]: 80
Plant response rating, Blackgrass [7, 25]: 100
Plant response rating: Windgrass [8, 16]: 30
Plant response rating: Windgrass [8, 17]: 70
Plant response rating: Windgrass [8, 24]: 80
Plant response rating, Windgrass [8, 18]: 10
Plant response rating, Windgrass [8, 23]: 15
Plant response rating, Windgrass [8, 19]: 25
Plant response rating, Windgrass [8, 20]: 40
Plant response rating, Windgrass [8, 21]: 75
Plant response rating, Windgrass [8, 22]: 100
Plant response rating, Windgrass [8, 25]: 100
